Results: patent publication US12427346B2, “P62 ligand compound, and composition for preventing, ameliorating or treating proteinopathies comprising the same” (AUTOTAC INC., priority 2018, dated 2025)
Counter-ions that a name gives are not always drawn.

Key:
Type in all cases: cell-based, human
p62 and LC3 [1] = assay: Autophagy activity of control compounds by immunofluorescence staining and confocal microscopy (Experimental Example 6); settings: different concentrations, FIG. 7
Protocol: In order to confirm p62 protein activity and the activity level of autophagy phenomenon of control compounds (YOK-A-1104, YOK-G-1104, YTK-1005, YTK-1105-1), immunofluorescence staining was performed in the same manner as in Experimental Example 4 by using p62 and LC3 as markers. YOK-A-1104 and YOK-G-1104 are compounds having the following structures.
The compounds were treated at different concentrations, and intracellular puncta of p62 or LC3, that is, the degree to which autophagosome was formed and p62 was delivered was observed by a confocal microscopy.

LC3 [2] = assay: Autophagy activity in cultured cells by immunoblotting, treatment time (Experimental Example 3); settings: HeLa cells; 5 μM for 1, 3, 6, 12, 24, 48 hours or 10 μM for 24 hours; immunoblot, FIG. 4
Protocol: In order to investigate the autophagy activity efficacy by the compounds (Examples 1-25), immunoblotting was performed in the same manner as in Experimental Example 2 using LC3 as a marker. As for the difference, in order to evaluate the treatment time required for activation and the activity retention time, 5 μM of the representative compounds selected among the present compounds (Example 5 (YTK-1005), Example 6 (YTK-1205), Example 7 (YTK-1305), Example 2 (YTK-2205), Example 3 (YTK-3305), Example 14 (YTK-1108), Example 8 (YTK-105), Example 9 (YTK-205)) were treated for 1, 3, 6, 12, 24, 48 hours. On the other hand, 10 μM of the representative compounds selected among the present compounds (Example 10 (YT 5-1), Example 11 (YT 5-2), Example 16 (YT 8-8), Example 15 (YT 8-7), Example 17 (YTK-107), Example 18 (YTK-207), Example 20 (ATB10041), Example 21 (ATB10042), Example 22 (ATB10043), Example 23 (ATB10044), Example 24 (ATB10045), Example 25 (ATB10046)) were treated for 24 hours.

LC3 [3] = assay: Autophagy activity in cultured cells by immunoblotting, concentration series (Experimental Example 2); settings: HeLa cells; 1, 2, 5, 10 and 20 μM, 24 hours; immunoblot, FIG. 3
Protocol: In order to evaluate the autophagy activity efficacy by the compounds (Examples 1-25), HeLa cell line, which is a cell line derived from a cervical cancer patient, was cultured using a DMEM medium containing 10% FBS and 1% streptomycin/penicillin in an incubator with 5% carbon dioxide. As the representative compounds among the present compounds, the compounds of Examples 1, 2, 3, 5, 6, 7, 8, 9, 12 and 13 (Example 5 (YTK-1005), Example 1 (YTK-1105), Example 6 (YTK-1205), Example 7 (YTK-1305), Example 2 (YTK-2205), Example 3 (YTK-3305), Example 8 (YTK-105), Example 9 (YTK-205), Example 14 (YTK-1108), Example 12 (YT 5-7), Example 13 (YT 5-8)), Example 20 (ATB10041), Example 21 (ATB10042), Example 22 (ATB10043), Example 23 (ATB10044), Example 24 (ATB10045), and Example 25 (ATB10046)) were selected. In order to measure autophagy activity according to the treatment with these selected representative compounds, the respective cells were dispensed into 6 well plates. Additional cultures were performed for 24 hours so that the cells were completely attached to the surface of the plate. To find the concentration at which the respective compounds could increase the phenomenon of autophagy, the test compounds were diluted at 1, 2, 5, 10 and 20 μM and treated. After treatment with the respective compounds, the cells were cultured again in a cell incubator for 24 hours, and then the cells were collected. To extract proteins from the collected cells, 100 ul of lysis buffer (20 mM Tris (pH 7.4), 150 mM NaCl, 1% Triton X-100, 2 mM NaF, 2 mM EDTA, 2 mM beta-glycerophosphate, 5 mM sodium orthovanadate, 1 mM PMSF, leupeptin, aprotinin) was injected into each sample, and cells were lysed. Based on the measured total protein concentration, a sample buffer was added to each sample and allowed to react at 100° C. for 5 minutes. 5 ul was taken from the samples after the reaction, and dispensed into each well of acrylamide gel, and then immunoblotting was performed.

p62 and LC3 [4] = assay: Autophagy activity by immunofluorescence staining and confocal microscopy (Experimental Example 5); settings: HeLa cells, 5 uM, 24 hours, FIG. 6
Protocol: In order to confirm the p62 protein activity and the activity level of autophagy phenomenon by the compounds (Examples 1-25), immunofluorescence staining was performed using p62 and LC3 as markers. In order to confirm the p62 activity and the activity level of autophagy phenomenon by new p62 ligands and isomers thereof in cultured cells, HeLa cell line, which is a cell line derived from cervical cancer patient, was treated with the novel p62 ligand compounds (YTK-1205, YTK-1305, YTK-2205, YTK-3305, YTK-105, YTK-205, YT 5-1, YT 9-1, YT 5-2, YT 9-2, YT 8-2, YT 8-1, YTK-107, YTK-207) and cultured. Thereafter, as markers of the autophagy phenomenon, the expression level and location of LC3 puncta and the local co-existence with p62 puncta were observed.
For immunofluorescence staining, a cover glass was placed on a 24-well plate, cells were dispensed, cultured for 24 hours, and then treated with 5 uM of the novel p62 ligands according to the present invention. For the action of the compounds, additional cultures were performed for 24 hours, and then the medium was removed. Cells were fixed using formaldehyde at room temperature. In order to prevent non-specific staining, the cells were allowed to react with a blocking solution at room temperature for 1 hour, and then treated with LC3 antibody diluted at a certain ratio using the blocking solution, and allowed to reacted at room temperature for 1 hour. The antibody-treated cells were washed three times with PBS, and goat-derived secondary antibody was diluted at a certain ratio using the blocking solution, and then allowed to react at room temperature for 30 minutes. The cells were washed again with PBS three times, and for intracellular nuclear staining, the expression level, intracellular puncta formation and intracellular coexistence level of p62 and LC3 were observed through a confocal microscopy after DAPI staining.

SMILES | p62 activation and oligomerization, delivery to autophagosome, autophagy activity (p62 and LC3 puncta) of control compounds (p62 and LC3 [1]) | autophagy activity (level of LC3) (LC3 [2]) | autophagy activity (level of LC3) (LC3 [3]) | p62 activation and oligomerization, delivery to autophagosome, autophagy activity (p62 and LC3 puncta, local coexistence) (p62 and LC3 [4])
CCOC(=O)C(C)NC[C@@H](O)COc1ccc(OCc2ccccc2)c(OCc2ccccc2)c1 (stereo partly drawn) [YOK ALA-1104, Ethyl (R)-(3-(3,4-bis(benzyloxy)phenoxy)-2-hydroxypropyl)alanineate] | allow the activation and oligomerization of p62 proteins and then show the efficacy of delivering them to autophagosome and simultaneously increasing autophagy activity | – | – | –
COC(=O)CNC[C@@H](O)COc1ccc(OCc2ccccc2)c(OCc2ccccc2)c1 [YOK R-Gly-1104, Methyl (R)-(3-(3,4-bis(benzyloxy)phenoxy)-2-hydroxypropyl)glycineate] | allow the activation and oligomerization of p62 proteins and then show the efficacy of delivering them to autophagosome and simultaneously increasing autophagy activity | – | – | –
OCCCCc1ccc(OCc2ccccc2)c(OCc2ccccc2)c1 [YTK HCl-1105-1, 4-(3,4-bis(benzyloxy)phenyl)butan-1-ol] | allow the activation and oligomerization of p62 proteins and then show the efficacy of delivering them to autophagosome and simultaneously increasing autophagy activity | – | – | –
OCCNCc1cccc(OCCc2ccccc2)c1 [YTK-205, 2-((3-(phenethoxy)benzyl)amino)ethan-1-ol] | – | increasing the autophagy activity | increasing the autophagy activity | allow the activation and oligomerization of p62 proteins, and then show the efficacy of delivering them to autophagosome and simultaneously increasing autophagy activity
OCCNCc1ccc(OCc2ccccc2)c(O)c1 [YTK-HCl-1005, 2-(benzyloxy)-5-(((2-hydroxyethyl)amino)methyl)phenol] | allow the activation and oligomerization of p62 proteins and then show the efficacy of delivering them to autophagosome and simultaneously increasing autophagy activity | increasing the autophagy activity | increasing the autophagy activity | –
